For ten molecules, IC50, Cmax and Activity results are on record in ChEMBL document CHEMBL5543134, “Channeling Nicotinamide Phosphoribosyltransferase (NAMPT) to Address Life and Death” (J Med Chem, 2024).

The subject of one data set is A2780. Kind of data set: cells. The note with it: Homo sapiens, A2780, 72 h.
For data set [1], the target named is Nicotinamide phosphoribosyltransferase (Mus musculus, UniProt Q99KQ4). Kind of data set: Inhibition of N-terminal His-tagged mouse NAMPT transformed in Escherichia coli Rosetta cells.
Sequence of Nicotinamide phosphoribosyltransferase (Mus musculus, UniProt Q99KQ4) (Q99KQ4 whole entry): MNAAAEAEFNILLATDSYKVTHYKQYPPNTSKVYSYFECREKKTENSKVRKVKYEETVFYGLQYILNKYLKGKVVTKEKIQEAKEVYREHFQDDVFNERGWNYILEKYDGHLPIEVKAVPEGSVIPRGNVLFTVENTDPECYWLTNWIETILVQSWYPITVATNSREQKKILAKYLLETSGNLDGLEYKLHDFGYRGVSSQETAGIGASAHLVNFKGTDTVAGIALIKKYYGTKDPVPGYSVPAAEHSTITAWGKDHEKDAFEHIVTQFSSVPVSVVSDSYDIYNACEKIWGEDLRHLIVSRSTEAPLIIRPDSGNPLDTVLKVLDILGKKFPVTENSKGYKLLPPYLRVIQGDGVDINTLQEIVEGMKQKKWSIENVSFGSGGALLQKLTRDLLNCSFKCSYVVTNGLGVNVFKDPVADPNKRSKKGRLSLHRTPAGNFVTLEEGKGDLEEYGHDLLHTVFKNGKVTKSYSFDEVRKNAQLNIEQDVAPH
Data set [2] has as its system HCT-116. Kind of data set: cells. To be noted: Homo sapiens, HCT-116, 48 h.
In data set [3] the target is Nicotinamide phosphoribosyltransferase (Homo sapiens, UniProt P43490). Kind of data set: Inhibition of NAMPT (unknown origin) using NAM and PRPP as substrates incubated for 2 hrs in presence of ATP by fluorimetric plate reader assay.
Sequence of Nicotinamide phosphoribosyltransferase (Homo sapiens, UniProt P43490) (P43490 whole entry): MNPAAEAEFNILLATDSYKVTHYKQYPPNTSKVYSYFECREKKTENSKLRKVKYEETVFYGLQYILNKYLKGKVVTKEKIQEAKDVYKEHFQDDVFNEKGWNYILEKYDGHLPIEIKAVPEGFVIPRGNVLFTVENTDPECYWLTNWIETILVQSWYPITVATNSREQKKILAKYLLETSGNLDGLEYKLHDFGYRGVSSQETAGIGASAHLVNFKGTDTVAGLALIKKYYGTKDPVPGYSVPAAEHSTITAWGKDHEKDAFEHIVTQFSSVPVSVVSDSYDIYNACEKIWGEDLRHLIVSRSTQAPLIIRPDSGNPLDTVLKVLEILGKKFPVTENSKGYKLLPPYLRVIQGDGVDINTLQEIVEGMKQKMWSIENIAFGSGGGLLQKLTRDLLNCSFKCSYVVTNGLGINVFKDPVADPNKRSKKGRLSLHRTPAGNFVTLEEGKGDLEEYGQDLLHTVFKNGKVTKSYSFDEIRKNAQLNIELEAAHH
Data set [4] can be described thus: Cmax in ICR mouse at 10 mg/kg, iv by LC-MS/MS analysis. The format is ADME, organism-based. The note with it: in vivo.
The nature of data set [5]: Cmax in Sprague-Dawley rat plasma at 60 mg/kg, ip measured up to 48 hrs by LC-MS/MS analysis. The format is ADME, organism-based.
Data set [6] relates to HCT-116. Kind of data set: Antitumor activity against human HCT-116 cells assessed as decrease in intracellular NAD level at 30 uM measured after 12 to 24 hrs by absorbance based assay. It is filed as functional. Details: scale not given: the % may be the effect or the level left. The note with it: time 12-24 hrs.

As for `O=S(=O)(c1ccc(NC(=S)NCc2ccncc2)cc1)N1CCCCC1`, the IC50 – broadly, the midpoint of a concentration-inhibition curve – in the data set with A2780 is more than 10 nM.

`CCOC(=O)c1ccc(NC(=O)NCc2ccncc2)cc1` had an IC50 with A2780 of 320 nM. As for `CCOC(=O)c1ccc(NC(=S)NCc2ccncc2)cc1`, the IC50 in the data set with A2780 is 1000 nM. The molecule `CCN(CC)S(=O)(=O)c1ccc(NC(=O)NCc2ccncc2)cc1` came in with an IC50 in the data set with A2780 of 364 nM. Consider `Cn1nccc1-c1nc2ccc(NC(=O)NCc3ccncc3)cn2n1`, for which the IC50 with A2780 was found to be 160 nM. On to `CCN(CC)C(=O)c1noc2cc(NC(=O)NCc3cnco3)ccc12`, for which, in data set [1], the midpoint of inhibition, the IC50, lay at 1490 nM.

In the data set with HCT-116 [2], `C#CCN(Cc1cc2c(=O)n(C)c(CN3CCN(CCN)CC3)nc2cc1Cl)c1ccc(C(=O)NCc2cccnc2)cc1` yielded an IC50 of 0.68 nM. As for `O=C(NCc1ccncc1)Nc1ccc(S(=O)(=O)N2C[C@H]3CC[C@@H](C2)O3)cc1`, the IC50 in data set [3] came out at 279 nM. Take `O=C(/C=C/c1cccnc1)NCCCCC1CCN(C(=O)c2ccccc2)CC1` [DAPORINAD]: the Cmax (usually the maximum level reached in the sampled fluid or tissue) in data set [4] is 14 µM; in data set [5], 6.7 µM. For the molecule `Nc1cc(F)ccc1NC(=O)c1ccc(CNC(=O)/C=C/c2cccnc2)cc1` [TUCIDINOSTAT], the Activity in the data set with HCT-116 [6] worked out at 50%.
